Source: US9481688B2, “(Thieno[2,3-b][1,5]benzoxazepin-4-yl)piperazin-1-yl compounds as dual activity H1 inverse agonists/5-HT2A antagonists” (Eli Lilly and Company, priority 2011, dated 2016)
Counter-ions that a name gives are not always drawn.

How the values were obtained:
5-HT5 = 5-HT5 (Homo sapiens (Human), UniProt P47898); assay: 5-HT5 binding
Source text: (§1) Further, the compounds of the invention may be tested in binding assays and functional activity assays by well known methods for other physiologically important receptors such as, but not limited to, the hERG channel, other serotonin receptors (specifically 5-HT1B, 5-HT1D, receptors, lack of agonist activity at 5-HT2B receptors, 5-HT2C, 5-HT5, 5-HT6, and 5-HT7 receptors), dopaminergic receptors (specifically D1, D2, and D3), GABAA receptors, adrenergic receptors and monoamine transporters.

[1] = target: recombinant 5-HT2C receptor (human) (Homo sapiens (Human), UniProt P28335); assay: 5-HT2C competition binding assay ([125I]-DOI, SPA); settings: dihydrochloride
Method: [^125I]-(±)DOI binding experiments are carried out in SPA 96-well format. Membranes used in this assay are prepared from AV-12 cells stably expressing recombinant 5-HT2C receptor (human). The incubation is initiated by the addition of a mixture of WGA PVT SPA beads (0.5 mg/well, Perkin Elmer (MA, USA), RPNQ0001) and 2.5 μg membranes to assay buffer (50 mM Tris-HCl, 10 mM MgCl2, 0.5 mM EDTA, 10 μM pargyline, 0.1% ascorbic acid, pH7.4) containing 0.2 nM [[^125I]-(±)DOI and varying concentrations of the test compound (10 point concentration response curves). Non-specific binding is determined in the presence of 20 μM 1-(1-Naphthyl) piperazine. Samples are incubated for 4 hr. at room temperature (22° C.) and then read in a Microbeta Trilux.
Curves are evaluated using a 4-parameter logistic nonlinear equation to obtain the concentration of competitor causing 50% inhibition of radioligand binding (IC50). Equilibrium dissociation constants (Ki) are calculated according to the equation Ki=IC50/(1+L/Kd), where L equals the concentration of radioligand used in the experiment and Kd equals the equilibrium dissociation constant of the radioligand for the receptor, determined from standard saturation analysis or homologous competition experiments. […]

Adrenergic alpha1B = Adrenergic alpha1B (Homo sapiens (Human), UniProt P35368); assay: Adrenergic alpha1B binding
Source text: as §1

Dopamine D2 = Dopamine D2 (Homo sapiens (Human), UniProt P14416); assay: Dopamine D2 binding; settings: dihydrochloride
Source text: as §1

Wistar rats = assay: Sleep and behavioral monitoring in rats (EEG, EMG, motion); settings: for Rebound Insomnia, Adj. Mean: NREM + REM sleep in 7th-9th hours post-treatment; for Rebound Insomnia, Adj. Mean / REM inhibition, Adj. Mean / Cumulative NREM sleep, Adj. Mean / Cumulative Total sleep, Adj. Mean / Locomotor Activity Intensity, Adj. Mean: difference from vehicle; for REM inhibition, Adj. Mean: REM sleep in first 12 hr. post-treatment; for Average Sleep Bout, Adj. Mean / Longest Sleep Bout, Adj. Mean / Cumulative NREM sleep, Adj. Mean / Cumulative Total sleep, Adj. Mean / Locomotor Activity Intensity, Adj. Mean: first 6 hr. post-treatment
[2] = target: recombinant 5-HT2A receptor (human) (Homo sapiens (Human), UniProt P28223); assay: 5-HT2A competition binding assay ([3H]-Ketanserin, SPA); settings: dihydrochloride
Method: [^3H]-Ketanserin binding experiments are carried out in SPA 96-well format. Membranes used in this assay are prepared from AV-12 cells stably expressing recombinant 5-HT2A receptor (human). The incubation is initiated by the addition of a mixture of WGA YSi SPA beads (1 mg/well, Perkin Elmer (MA, USA), RPNQ0011) and 2 μg membranes to assay buffer (67 mM Tris, 0.5 mM EDTA; pH 7.6) containing 3.1 nM [^3H]-Ketanserin and varying concentrations of the test compound (10 point concentration response curves). Non-specific binding is determined in the presence of 20 μM 1-(1-Naphthyl) piperazine. Samples are incubated for 4 hr. at room temperature (22° C.) and then read in a Microbeta Trilux.
Curves are evaluated using a 4-parameter logistic nonlinear equation to obtain the concentration of competitor causing 50% inhibition of radioligand binding (IC50). Equilibrium dissociation constants (Ki) are calculated according to the equation Ki=IC50/(1+L/Kd), where L equals the concentration of radioligand used in the experiment and Kd equals the equilibrium dissociation constant of the radioligand for the receptor, determined from standard saturation analysis or homologous competition experiments. Reported values for Ki, where n values are indicated, are shown as geometric mean±the standard error of the mean (SEM), with the number of replicate determinations indicated by n. […]

5-HT2B [3] = target: T1, 5-HT2B (Homo sapiens (Human), UniProt P41595); assay: 5-HT2B binding
Source text: as §1

5-HT1B = 5-HT1B (Homo sapiens (Human), UniProt P28222); assay: 5-HT1B binding
Source text: as §1

Adrenergic alpha2A = Adrenergic alpha2A (Homo sapiens (Human), UniProt P08913); assay: Adrenergic alpha2A binding
Source text: as §1

5-HT2A Receptor [4] = target: 5-HT2A Receptor (Rattus norvegicus (Rat), UniProt P14842); assay: 5-HT2A receptor occupancy in vivo (MDL 100907 tracer); settings: oral gavage, 1 hr. before tracer
Source text: (§2) J Neurosci Methods. […] Recording Environment. […] Relative humidity averages approximately 50%. […] Study Design and Dosing. […] Data Collection. […] Statistical Analysis.

5-HT2B [5] = target: T1, 5-HT2B; assay: 5-HT2B agonist functional activity; format: biochemical
Source text: as §1

5-HT2B [6] = target: T1, 5-HT2B; assay: 5-HT2B antagonist functional activity; format: biochemical
Source text: as §1

5-HT1D = 5-HT1D (Homo sapiens (Human), UniProt P28221); assay: 5-HT1D binding
Source text: as §1

5-HT6 = 5-HT6 (Homo sapiens (Human), UniProt P50406); assay: 5-HT6 binding
Source text: as §1

5-HT7 = 5-HT7 (Homo sapiens (Human), UniProt P34969); assay: 5-HT7 binding
Source text: as §1

5-HT2A receptor [7] = target: 5-HT2A receptor (Mus musculus (Mouse), UniProt P35363); assay: Inhibition of DOI induced headshake activity; format: in vivo; settings: 10 mg/kg PO, mice, 60 min. pre-treatment, read-out: inhibition of DOI induced headshake response
Source text: as §2

hERG channel = hERG channel (Homo sapiens (Human), UniProt Q12809); assay: hERG channel assay
Source text: as §1

Dopamine D3 = Dopamine D3 (Homo sapiens (Human), UniProt P35462); assay: Dopamine D3 binding; settings: dihydrochloride
Source text: as §1

[8] = rat, PO, 6 hr. after treatment, 4 parameter logistic regression

T1 sequence (P41595 whole entry, species assumed): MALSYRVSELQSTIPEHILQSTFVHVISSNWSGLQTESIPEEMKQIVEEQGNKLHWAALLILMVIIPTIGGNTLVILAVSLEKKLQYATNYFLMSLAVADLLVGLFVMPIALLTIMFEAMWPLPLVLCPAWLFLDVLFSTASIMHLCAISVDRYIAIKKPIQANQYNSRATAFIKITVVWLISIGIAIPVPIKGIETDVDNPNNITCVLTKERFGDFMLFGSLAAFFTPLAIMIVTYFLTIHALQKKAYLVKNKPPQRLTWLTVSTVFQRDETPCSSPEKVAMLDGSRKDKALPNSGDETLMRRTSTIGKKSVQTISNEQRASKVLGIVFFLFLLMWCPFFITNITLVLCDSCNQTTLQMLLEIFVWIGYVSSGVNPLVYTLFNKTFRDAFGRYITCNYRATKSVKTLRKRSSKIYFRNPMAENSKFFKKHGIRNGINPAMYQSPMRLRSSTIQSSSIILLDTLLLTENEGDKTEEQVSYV
Adrenergic alpha2A, sequence (P08913 whole entry): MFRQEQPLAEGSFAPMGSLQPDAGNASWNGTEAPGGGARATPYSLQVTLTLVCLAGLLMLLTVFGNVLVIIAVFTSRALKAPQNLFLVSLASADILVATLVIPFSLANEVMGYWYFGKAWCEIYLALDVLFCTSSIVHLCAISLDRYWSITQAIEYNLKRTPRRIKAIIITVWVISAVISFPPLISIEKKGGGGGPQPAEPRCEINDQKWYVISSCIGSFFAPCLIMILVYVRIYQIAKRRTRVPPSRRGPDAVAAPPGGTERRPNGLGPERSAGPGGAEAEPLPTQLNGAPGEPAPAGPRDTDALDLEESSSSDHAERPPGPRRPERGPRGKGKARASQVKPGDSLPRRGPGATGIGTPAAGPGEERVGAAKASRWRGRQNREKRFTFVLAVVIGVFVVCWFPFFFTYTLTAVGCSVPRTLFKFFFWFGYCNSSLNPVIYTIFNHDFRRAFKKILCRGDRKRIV
Dopamine D2, sequence (P14416 whole entry): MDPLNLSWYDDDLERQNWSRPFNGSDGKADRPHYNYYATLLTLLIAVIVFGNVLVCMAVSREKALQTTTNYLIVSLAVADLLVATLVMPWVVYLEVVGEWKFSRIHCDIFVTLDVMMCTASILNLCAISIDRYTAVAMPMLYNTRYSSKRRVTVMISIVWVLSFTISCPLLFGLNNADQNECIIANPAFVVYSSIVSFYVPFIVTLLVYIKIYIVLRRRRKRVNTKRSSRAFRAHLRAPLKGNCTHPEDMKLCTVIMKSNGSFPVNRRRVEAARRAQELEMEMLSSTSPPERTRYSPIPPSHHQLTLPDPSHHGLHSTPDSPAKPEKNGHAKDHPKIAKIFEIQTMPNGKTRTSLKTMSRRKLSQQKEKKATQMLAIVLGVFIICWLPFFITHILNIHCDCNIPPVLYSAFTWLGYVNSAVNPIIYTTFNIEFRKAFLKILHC
recombinant 5-HT2C receptor (human), sequence (P28335 whole entry, looked up): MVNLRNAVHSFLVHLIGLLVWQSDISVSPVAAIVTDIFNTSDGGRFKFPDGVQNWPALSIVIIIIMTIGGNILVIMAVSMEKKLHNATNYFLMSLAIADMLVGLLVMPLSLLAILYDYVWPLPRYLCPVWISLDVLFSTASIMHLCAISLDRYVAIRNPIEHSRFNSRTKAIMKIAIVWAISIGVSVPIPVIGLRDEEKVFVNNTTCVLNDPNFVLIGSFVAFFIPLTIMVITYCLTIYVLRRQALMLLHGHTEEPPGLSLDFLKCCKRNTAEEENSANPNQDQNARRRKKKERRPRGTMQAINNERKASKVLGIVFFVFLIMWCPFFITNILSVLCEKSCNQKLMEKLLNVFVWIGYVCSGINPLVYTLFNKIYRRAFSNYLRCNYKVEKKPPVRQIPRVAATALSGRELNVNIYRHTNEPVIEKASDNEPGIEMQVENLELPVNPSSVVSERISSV
5-HT6, sequence (P50406 whole entry, species assumed): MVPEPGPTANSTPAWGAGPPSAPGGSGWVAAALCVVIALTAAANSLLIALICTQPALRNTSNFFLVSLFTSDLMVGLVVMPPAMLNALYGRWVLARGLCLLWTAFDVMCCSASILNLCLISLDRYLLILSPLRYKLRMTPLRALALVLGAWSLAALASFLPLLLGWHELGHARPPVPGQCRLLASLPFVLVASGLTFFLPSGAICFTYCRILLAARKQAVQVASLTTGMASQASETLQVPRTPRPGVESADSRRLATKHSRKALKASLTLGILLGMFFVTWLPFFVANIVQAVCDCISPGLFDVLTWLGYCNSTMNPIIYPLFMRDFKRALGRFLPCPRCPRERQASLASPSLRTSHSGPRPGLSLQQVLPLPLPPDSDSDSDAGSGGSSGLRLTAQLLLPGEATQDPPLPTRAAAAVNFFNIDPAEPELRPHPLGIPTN
hERG channel, sequence (Q12809 whole entry): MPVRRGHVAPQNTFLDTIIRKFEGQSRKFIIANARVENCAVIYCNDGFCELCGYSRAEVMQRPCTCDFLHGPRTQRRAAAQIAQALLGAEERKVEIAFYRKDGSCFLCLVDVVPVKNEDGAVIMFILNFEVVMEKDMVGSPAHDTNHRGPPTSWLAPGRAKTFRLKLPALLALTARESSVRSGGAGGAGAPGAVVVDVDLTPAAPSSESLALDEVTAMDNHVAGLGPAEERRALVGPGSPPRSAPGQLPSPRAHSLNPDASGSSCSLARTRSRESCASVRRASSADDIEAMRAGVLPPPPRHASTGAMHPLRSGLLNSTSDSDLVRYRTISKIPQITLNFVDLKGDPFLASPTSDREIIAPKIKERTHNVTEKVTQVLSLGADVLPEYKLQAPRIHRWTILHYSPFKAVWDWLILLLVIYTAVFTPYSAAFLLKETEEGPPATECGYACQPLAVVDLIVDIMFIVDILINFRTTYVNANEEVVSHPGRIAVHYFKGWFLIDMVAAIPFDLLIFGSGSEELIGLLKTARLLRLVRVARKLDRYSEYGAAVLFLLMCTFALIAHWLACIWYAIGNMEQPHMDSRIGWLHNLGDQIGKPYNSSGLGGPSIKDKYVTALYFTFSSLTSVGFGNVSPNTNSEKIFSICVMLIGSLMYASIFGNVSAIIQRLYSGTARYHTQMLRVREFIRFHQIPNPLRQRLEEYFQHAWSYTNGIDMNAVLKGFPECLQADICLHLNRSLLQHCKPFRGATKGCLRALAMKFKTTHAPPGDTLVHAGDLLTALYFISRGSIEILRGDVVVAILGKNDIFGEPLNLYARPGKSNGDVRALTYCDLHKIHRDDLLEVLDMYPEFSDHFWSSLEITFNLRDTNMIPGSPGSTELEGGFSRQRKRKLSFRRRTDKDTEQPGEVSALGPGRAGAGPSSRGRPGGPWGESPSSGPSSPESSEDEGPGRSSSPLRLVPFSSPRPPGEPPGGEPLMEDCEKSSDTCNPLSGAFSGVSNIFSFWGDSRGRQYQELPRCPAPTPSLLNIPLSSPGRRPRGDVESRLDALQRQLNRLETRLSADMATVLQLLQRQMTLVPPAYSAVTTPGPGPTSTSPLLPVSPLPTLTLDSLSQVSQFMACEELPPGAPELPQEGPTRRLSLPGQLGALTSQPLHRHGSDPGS
Dopamine D3, sequence (P35462 whole entry): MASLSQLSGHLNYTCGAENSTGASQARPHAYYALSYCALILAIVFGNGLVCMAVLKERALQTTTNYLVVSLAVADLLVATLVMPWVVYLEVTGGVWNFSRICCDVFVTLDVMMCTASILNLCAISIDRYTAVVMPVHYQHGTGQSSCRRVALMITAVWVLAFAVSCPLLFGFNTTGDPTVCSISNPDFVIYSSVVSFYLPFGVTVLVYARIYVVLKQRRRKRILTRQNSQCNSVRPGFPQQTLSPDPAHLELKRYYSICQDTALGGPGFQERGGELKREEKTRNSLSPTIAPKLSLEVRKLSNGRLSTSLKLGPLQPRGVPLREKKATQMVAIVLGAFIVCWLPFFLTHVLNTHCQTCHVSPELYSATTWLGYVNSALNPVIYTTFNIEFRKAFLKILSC
5-HT5, sequence (P47898 whole entry, species assumed): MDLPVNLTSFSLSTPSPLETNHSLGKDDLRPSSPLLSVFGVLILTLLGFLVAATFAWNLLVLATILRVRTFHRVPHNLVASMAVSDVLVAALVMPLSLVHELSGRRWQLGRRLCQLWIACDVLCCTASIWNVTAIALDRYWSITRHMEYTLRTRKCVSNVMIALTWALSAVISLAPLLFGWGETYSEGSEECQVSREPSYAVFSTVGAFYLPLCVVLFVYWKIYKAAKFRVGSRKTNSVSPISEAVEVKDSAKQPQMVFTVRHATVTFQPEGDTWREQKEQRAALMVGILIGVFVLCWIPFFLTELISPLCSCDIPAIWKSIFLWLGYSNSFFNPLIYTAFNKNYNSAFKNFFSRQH
5-HT7, sequence (P34969 whole entry, species assumed): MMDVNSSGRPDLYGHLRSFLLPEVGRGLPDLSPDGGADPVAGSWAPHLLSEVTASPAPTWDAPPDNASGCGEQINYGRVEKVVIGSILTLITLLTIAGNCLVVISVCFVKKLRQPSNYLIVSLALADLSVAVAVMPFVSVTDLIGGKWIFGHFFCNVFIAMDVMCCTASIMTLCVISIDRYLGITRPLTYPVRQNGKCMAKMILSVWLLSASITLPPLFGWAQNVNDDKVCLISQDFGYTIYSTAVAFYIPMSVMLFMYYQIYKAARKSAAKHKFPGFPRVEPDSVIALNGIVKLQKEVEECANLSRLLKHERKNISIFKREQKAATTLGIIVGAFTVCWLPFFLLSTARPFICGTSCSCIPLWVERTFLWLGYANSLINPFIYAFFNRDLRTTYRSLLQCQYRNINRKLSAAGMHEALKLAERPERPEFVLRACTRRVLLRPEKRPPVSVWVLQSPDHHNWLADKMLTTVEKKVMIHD

Cc1ccc2c(c1)Oc1sc(Cl)cc1C(N1CCN(CC(C)(C)C(=O)O)CC1)=N2 [Example 3, 3-[4-(2-chloro-8-methyl-thieno[2,3-b][1,5]benzoxazepin-4-yl)piperazin-1-yl]-2,2-dimethyl-propanoic acid dihydrochloride]
Ki (5-HT5): > 8.81 µM
Ki [1]: 0.328 µM
Ki (Adrenergic alpha1B): > 14.7 µM
Ki (Dopamine D2): > 4.57 µM
Rebound Insomnia, Adj. Mean (Wistar rats; 0.025 mg/kg PO): 1.4 min
REM inhibition, Adj. Mean (Wistar rats; 0.025 mg/kg PO): 0.5 min
Average Sleep Bout, Adj. Mean (Wistar rats; 0.025 mg/kg PO): 1.2 n-fold increase over vehicle controls
Longest Sleep Bout, Adj. Mean (Wistar rats; 0.025 mg/kg PO): 1.1 n-fold increase over vehicle controls
Cumulative NREM sleep, Adj. Mean (Wistar rats; 0.025 mg/kg PO): 6.5 min
Cumulative Total sleep, Adj. Mean (Wistar rats; 0.025 mg/kg PO): 7.7 min
Locomotor Activity Intensity, Adj. Mean (Wistar rats; 0.025 mg/kg PO): 0.2 LMA counts per minute of EEG-defined wakefulness
Rebound Insomnia, Adj. Mean (Wistar rats; 0.035 mg/kg PO): 1.3 min
REM inhibition, Adj. Mean (Wistar rats; 0.035 mg/kg PO): -1.8 min
Average Sleep Bout, Adj. Mean (Wistar rats; 0.035 mg/kg PO): 1.3 n-fold increase over vehicle controls
Longest Sleep Bout, Adj. Mean (Wistar rats; 0.035 mg/kg PO): 1.1 n-fold increase over vehicle controls
Cumulative NREM sleep, Adj. Mean (Wistar rats; 0.035 mg/kg PO): 19.2 min
Cumulative Total sleep, Adj. Mean (Wistar rats; 0.035 mg/kg PO): 18.9 min
Locomotor Activity Intensity, Adj. Mean (Wistar rats; 0.035 mg/kg PO): 0.2 LMA counts per minute of EEG-defined wakefulness
Rebound Insomnia, Adj. Mean (Wistar rats; 0.05 mg/kg PO): 0.2 min
REM inhibition, Adj. Mean (Wistar rats; 0.05 mg/kg PO): 4.2 min
Average Sleep Bout, Adj. Mean (Wistar rats; 0.05 mg/kg PO): 1.6 n-fold increase over vehicle controls
Longest Sleep Bout, Adj. Mean (Wistar rats; 0.05 mg/kg PO): 1.4 n-fold increase over vehicle controls
Cumulative NREM sleep, Adj. Mean (Wistar rats; 0.05 mg/kg PO): 23.4 min
Cumulative Total sleep, Adj. Mean (Wistar rats; 0.05 mg/kg PO): 25.3 min
Locomotor Activity Intensity, Adj. Mean (Wistar rats; 0.05 mg/kg PO): −0.3 LMA counts per minute of EEG-defined wakefulness
Rebound Insomnia, Adj. Mean (Wistar rats; 0.1 mg/kg PO): -3.7 min
REM inhibition, Adj. Mean (Wistar rats; 0.1 mg/kg PO): 4.9 min
Average Sleep Bout, Adj. Mean (Wistar rats; 0.1 mg/kg PO): 1.7 n-fold increase over vehicle controls
Longest Sleep Bout, Adj. Mean (Wistar rats; 0.1 mg/kg PO): 1.5 n-fold increase over vehicle controls
Cumulative NREM sleep, Adj. Mean (Wistar rats; 0.1 mg/kg PO): 26.7 min
Cumulative Total sleep, Adj. Mean (Wistar rats; 0.1 mg/kg PO): 28.7 min
Locomotor Activity Intensity, Adj. Mean (Wistar rats; 0.1 mg/kg PO): 0.1 LMA counts per minute of EEG-defined wakefulness
Rebound Insomnia, Adj. Mean (Wistar rats; 0.25 mg/kg PO): -2.2 min
REM inhibition, Adj. Mean (Wistar rats; 0.25 mg/kg PO): 2.0 min
Average Sleep Bout, Adj. Mean (Wistar rats; 0.25 mg/kg PO): 2.1 n-fold increase over vehicle controls
Longest Sleep Bout, Adj. Mean (Wistar rats; 0.25 mg/kg PO): 2.0 n-fold increase over vehicle controls
Cumulative NREM sleep, Adj. Mean (Wistar rats; 0.25 mg/kg PO): 37.9 min
Cumulative Total sleep, Adj. Mean (Wistar rats; 0.25 mg/kg PO): 38.9 min
Locomotor Activity Intensity, Adj. Mean (Wistar rats; 0.25 mg/kg PO): −0.7 LMA counts per minute of EEG-defined wakefulness
Rebound Insomnia, Adj. Mean (Wistar rats; 0.5 mg/kg PO): -5.0 min
REM inhibition, Adj. Mean (Wistar rats; 0.5 mg/kg PO): 0.4 min
Average Sleep Bout, Adj. Mean (Wistar rats; 0.5 mg/kg PO): 1.8 n-fold increase over vehicle controls
Longest Sleep Bout, Adj. Mean (Wistar rats; 0.5 mg/kg PO): 2.2 n-fold increase over vehicle controls
Cumulative NREM sleep, Adj. Mean (Wistar rats; 0.5 mg/kg PO): 32.9 min
Cumulative Total sleep, Adj. Mean (Wistar rats; 0.5 mg/kg PO): 30.9 min
Locomotor Activity Intensity, Adj. Mean (Wistar rats; 0.5 mg/kg PO): 0.6 LMA counts per minute of EEG-defined wakefulness
Rebound Insomnia, Adj. Mean (Wistar rats; 1 mg/kg PO): 1.6 min
REM inhibition, Adj. Mean (Wistar rats; 1 mg/kg PO): -0.1 min
Average Sleep Bout, Adj. Mean (Wistar rats; 1 mg/kg PO): 1.7 n-fold increase over vehicle controls
Longest Sleep Bout, Adj. Mean (Wistar rats; 1 mg/kg PO): 2.0 n-fold increase over vehicle controls
Cumulative NREM sleep, Adj. Mean (Wistar rats; 1 mg/kg PO): 34.0 min
Cumulative Total sleep, Adj. Mean (Wistar rats; 1 mg/kg PO): 33.6 min
Locomotor Activity Intensity, Adj. Mean (Wistar rats; 1 mg/kg PO): −1.6 LMA counts per minute of EEG-defined wakefulness
Rebound Insomnia, Adj. Mean (Wistar rats; 3 mg/kg PO): 0.3 min
REM inhibition, Adj. Mean (Wistar rats; 3 mg/kg PO): -4.6 min
Average Sleep Bout, Adj. Mean (Wistar rats; 3 mg/kg PO): 2.0 n-fold increase over vehicle controls
Longest Sleep Bout, Adj. Mean (Wistar rats; 3 mg/kg PO): 2.7 n-fold increase over vehicle controls
Cumulative NREM sleep, Adj. Mean (Wistar rats; 3 mg/kg PO): 31.7 min
Cumulative Total sleep, Adj. Mean (Wistar rats; 3 mg/kg PO): 29.7 min
Locomotor Activity Intensity, Adj. Mean (Wistar rats; 3 mg/kg PO): −3.1 LMA counts per minute of EEG-defined wakefulness
Rebound Insomnia, Adj. Mean (Wistar rats; 10 mg/kg PO): -3.1 min
REM inhibition, Adj. Mean (Wistar rats; 10 mg/kg PO): -9.4 min
Average Sleep Bout, Adj. Mean (Wistar rats; 10 mg/kg PO): 2.0 n-fold increase over vehicle controls
Longest Sleep Bout, Adj. Mean (Wistar rats; 10 mg/kg PO): 2.3 n-fold increase over vehicle controls
Cumulative NREM sleep, Adj. Mean (Wistar rats; 10 mg/kg PO): 29.1 min
Cumulative Total sleep, Adj. Mean (Wistar rats; 10 mg/kg PO): 26.5 min
Locomotor Activity Intensity, Adj. Mean (Wistar rats; 10 mg/kg PO): −1.9 LMA counts per minute of EEG-defined wakefulness
change in awake time following treatment (dose response curve, FIG. 2) (Wistar rats; rat): does not result in rebound insomnia
change in cumulative REM sleep time (dose response curve, FIG. 1) (Wistar rats; rat): does not inhibit REM sleep
change in distances moved during periods of wakefulness (dose response curve, FIG. 3) (Wistar rats; rat): does not inhibit or stimulate normal activity
Estimated efficacy dose, NREM accumulation = 30 min. (Wistar rats; [8]): 0.09 mg/kg
Estimated efficacy dose, average sleep bout (1.5-fold increase) (Wistar rats; [8]): 0.04 mg/kg
Estimated efficacy dose, longest sleep bout (1.75-fold increase) (Wistar rats; [8]): 0.12 mg/kg
Estimated efficacy dose, total sleep accumulation = 25 min. (Wistar rats; [8]): 0.05 mg/kg
REM sleep inhibition (Wistar rats; rat, at 3 mg/kg): without significant
cumulative NREM sleep time (Wistar rats; rat, at 3 mg/kg): significantly increase
cumulative total sleep time (Wistar rats; rat, at 3 mg/kg): significantly increase
inhibition of locomotor intensity (LMI) (Wistar rats; rat, at 3 mg/kg): without significant
rebound insomnia (Wistar rats; rat, at 3 mg/kg): without significant rebound insomnia
NREM sleep (Wistar rats; rat, coadministered with citalopram): significantly increase NREM sleep at significantly lower doses
Ki [2]: 0.00701 µM
Ki (5-HT2B [3]): 0.121 µM
Ki (5-HT1B): > 5.58 µM
Ki (Adrenergic alpha2A): > 8.99 µM
ED50 (5-HT2A Receptor [4]): 0.09 mg/kg
EC50 (5-HT2B [5]): > 10 µM
Kb (5-HT2B [6]): 0.0786 µM
Ki (5-HT1D): > 3.98 µM
Ki (5-HT6): > 5.83 µM
Ki (5-HT7): > 2.06 µM
inhibition at 10 mg/kg (5-HT2A receptor [7]): 100%
hERG Channel (hERG channel): >100 µM
Ki (Dopamine D3): > 5.68 µM
